# Experimental data: US11512074B2, “Substituted diamino heterocyclic carboxamide compound and a composition containing the compound and use thereof” (Shenzhen TargetRx, Inc., priority 2018, dated 2022)
# Where two headings read alike, the source gives them in different places.
# Assay: Pharmacokinetic experiment in rats
# Format: in vivo, Sprague-Dawley rats
# Settings: rat; for AUC(0-t) / Cmax / Tmax / half-life / AUC(0-inf) / MRT inf: male, Sprague-Dawley, plasma; for AUC(0-inf): read-out: AUCINF_pred; for MRT inf: read-out: MRTINF_pred; for F: PO 10 mg/kg vs IV 3 mg/kg
# Description: Six male Sprague-Dawley rats, 7 to 8 weeks old, weighing approximately 210 g, were divided into 2 groups with 3 rats in each group. The pharmacokinetic differences of the compounds were compared after they were administered to the rats at a single dose through vein (in vein 3 mg/kg) or mouth (orally 10 mg/kg).
# The rats were fed with standard feed and water, and fasted 16 hours before the experiment. The drugs were dissolved with PEG400 and dimethyl sulfoxide. The blood samples were collected from eyelids at the time point of 0.083, 0.25, 0.5, 1, 2, 4, 6, 8, 12 and 24 hours after administration.
# The rats were anesthetized for a short time after inhaling ether, and 300 μL of blood samples was collected from the eyelids and put into test tubes, which contains 30 μL of 1% heparin salt solution. The test tubes were dried overnight at 60° C. prior to use. After the blood sample collection at the last time point, the rats were sacrificed after the ether anesthesia.
# Immediately after the collection of the blood samples, the test tubes were gently inverted at least 5 times to ensure the fully mixing and placed on ice. The blood samples were centrifuged at 4° C., 5000 rpm for 5 minutes to separate the plasma from the red blood cells. 100 μL of plasma was pipetted into a clean plastic centrifuge tube, with the name of the compound and time point on it. The plasma was stored at −80° C. before analysis, and LC-MS/MS was used to determine the concentration of the compounds disclosed herein in plasma. Pharmacokinetic parameters were calculated based on the plasma concentrations of each animal at different time points.
AUC(0-t) (IV 3 mg/kg),Cmax (IV 3 mg/kg),Tmax (IV 3 mg/kg),half-life (IV 3 mg/kg),AUC(0-inf) (IV 3 mg/kg),MRT inf (IV 3 mg/kg),AUC(0-t) (PO 10 mg/kg),Cmax (PO 10 mg/kg),Tmax (PO 10 mg/kg),half-life (PO 10 mg/kg),AUC(0-inf) (PO 10 mg/kg),MRT inf (PO 10 mg/kg),Vz_pred (IV 3 mg/kg),Vz_pred (PO 10 mg/kg),F,SMILES
556 ng·h/mL,138 ng/mL,0.08 h,3.59 h,572 ng·h/mL,4.2 h,510 ng·h/mL,48.4 ng/mL,5.33 h,5.93 h,578 ng·h/mL,7.89 h,28.80 L/kg,162.8 L/kg,27.52%,"[2H]C([2H])([2H])Oc1cc(Nc2nc(NC3CCOCC3)c(CC)nc2C(N)=O)ccc1N1CCC(N2CCN(C)CC2)CC1 [Compound T-1, 6-ethyl-3-((3-(methoxy-d3)-4-(4-(4-methylpiperazin-1-yl)piperidin-1-yl)phenyl)amino)-5-((tetrahydro-2H-pyran-4-yl)amino)pyrazine-2-carboxamide]"
449 ng·h/mL,196 ng/mL,0.08 h,4.08 h,509 ng·h/mL,3.44 h,317 ng·h/mL,34.6 ng/mL,8 h,5.76 h,435 ng·h/mL,7.46 h,34.89 L/kg,212.0 L/kg,21.15%,"CCc1nc(C(N)=O)c(Nc2ccc(N3CCC(N4CCN(C)CC4)CC3)c(OC)c2)nc1NC1CCOCC1 [Gilteritinib, 6-ethyl-3-((3-methoxy-4-(4-(4-methylpiperazin-1-yl)piperidin-1-yl)phenyl)amino)-5-((tetrahydro-2H-pyran-4-yl)amino)pyrazine-2-carboxamide, reference compound]"
